Key:
Assay in all cases: Colony formation (CFU) assay
Format in all cases: cell-based
UBLC1 = settings: UBLC1, bladder
Method in brief: (§1)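 Growth of colonies was followed for about 14 days under USP1 inhibitor, PARP inhibitor (niraparib or olaparib) or DMSO, given in fresh medium on day 8. Fixed cells were crystal-violet stained and extracted dye measured at 565 nm; IC50 values came from Hill-equation fitting.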

UWB1289 = settings: for sensitivity to single agents: UWB1.289, BRCA1 mutant ovarian cell line; for IC50: UWB1289, ovary
Method in brief: as §1

NCIH1915 = settings: NCI-H1915; NCIH1915, lung
Method in brief: as §1

HT144 = settings: Homo sapiens, HT-144; HT144, skin
Method in brief: as §1

HS821T = settings: bone
Method in brief: as §1

SCC25 = settings: Homo sapiens, SCC-25; SCC25, head and neck
Method in brief: as §1

VMRCRCW = settings: kidney
Method in brief: as §1

HBCx9 = settings: HBCx9, breast
Method in brief: as §1

SUIT2 = settings: SUIT-2; SUIT2, pancreas
Method in brief: as §1

NCIH1693 = settings: Homo sapiens, NCI-H1693; NCIH1693, lung
Method in brief: as §1

8305C = settings: Homo sapiens, thyroid
Method in brief: as §1

U2OS = settings: Homo sapiens, bone
Method in brief: as §1

RT11284 = settings: Homo sapiens, RT112/84; RT11284, bladder
Method in brief: as §1

HSC3 = settings: Homo sapiens, HSC-3; HSC3, head and neck
Method in brief: as §1

NCIH1299 = settings: Homo sapiens, NCI-H1299; NCIH1299, lung
Method in brief: as §1

HCT15 = settings: Homo sapiens, HCT-15; HCT15, colon
Method in brief: as §1

KMBC2 = settings: KMBC2, bladder
Method in brief: as §1

ASPC1 = settings: Homo sapiens; ASPC1, pancreas
Method in brief: as §1

T174 = settings: T174, breast
Method in brief: as §1

RL952 = settings: Homo sapiens, RL95-2; RL952, uterus
Method in brief: as §1

NCIH1838 = settings: Homo sapiens, NCI-H1838; NCIH1838, lung
Method in brief: as §1

HT1080 = settings: Homo sapiens, HT-1080; HT1080, soft tissue
Method in brief: as §1

JHOS2 = settings: for IC50: JHOS2, ovary; for activity as single agents: JHOS2, up to 300 nM
Method in brief: as §1

SNU668 = settings: SNU668, stomach
Method in brief: as §1

RT112 = settings: Homo sapiens, RT-112; RT112, bladder
Method in brief: as §1

HCC1569 = settings: Homo sapiens; HCC1569, breast
Method in brief: as §1

CCK81 = settings: CCK81, colon
Method in brief: as §1

CFPAC1 = settings: Homo sapiens, CFPAC-1; CFPAC1, pancreas
Method in brief: as §1

SNU407 = settings: SNU-407; SNU407, colon
Method in brief: as §1

SNUC5 = settings: SNUC5, colon
Method in brief: as §1

BICR22 = settings: BICR22, head and neck
Method in brief: as §1

BICR6 = settings: BICR6, head and neck
Method in brief: as §1

T226 = settings: T226, breast
Method in brief: as §1

YKG1 = settings: Homo sapiens, YKG-1; YKG1, nervous system
Method in brief: as §1

BICR78 = settings: BICR78, head and neck
Method in brief: as §1

HCC1500 = settings: HCC1500, breast
Method in brief: as §1

KALS1 = settings: Homo sapiens, KALS-1; KALS1, nervous system
Method in brief: as §1

Compound | IC50 (UBLC1) [nM] | sensitivity to single agents (UWB1289) | IC50 (UWB1289) [nM] | IC50 (NCIH1915) [nM] | IC50 (HT144) [nM] | IC50 (HS821T) [nM] | IC50 (SCC25) [nM] | IC50 (VMRCRCW) [nM] | IC50 (HBCx9) [nM] | IC50 (SUIT2) [nM] | IC50 (NCIH1693) [nM] | IC50 (8305C) [nM] | IC50 (U2OS) [nM] | IC50 (RT11284) [nM] | IC50 (HSC3) [nM] | IC50 (NCIH1299) [nM] | IC50 (HCT15) [nM] | IC50 (KMBC2) [nM] | IC50 (ASPC1) [nM] | IC50 (T174) [nM] | also measured
COc1ncnc(C2CC2)c1-c1ncc2cnn(Cc3ccc(-c4nc(C(F)(F)F)cn4C)cc3)c2n1 [Formula II, 6-(4-cyclopropyl-6-methoxypyrimidin-5-yl)-1-(4-(1-methyl-4-(trifluoromethyl)-1H-imidazol-2-yl)benzyl)-1H-pyrazolo[3,4-d]pyrimidine] | > 300 | sensitive | 22.3 | 52.2 | 84.3 | > 300 | > 300 | > 300 | > 300 | > 300 | 12.7 | > 300 | > 300 | > 300 | > 300 | > 300 | > 300 | > 300 | > 300 | > 300 | IC50 (RL952): > 300 nM; IC50 (NCIH1838): > 300 nM; IC50 (HT1080): > 300 nM; IC50 (JHOS2): > 300 nM; activity as single agents (JHOS2): little to no activity; IC50 (SNU668): > 300 nM; IC50 (RT112): > 300 nM; IC50 (HCC1569): > 300 nM; IC50 (CCK81): > 300 nM; IC50 (CFPAC1): > 300 nM; IC50 (SNU407): > 300 nM; IC50 (SNUC5): > 300 nM; IC50 (BICR22): > 300 nM; IC50 (BICR6): > 300 nM; IC50 (T226): > 300 nM; IC50 (YKG1): > 300 nM; IC50 (BICR78): > 300 nM; IC50 (HCC1500): > 300 nM; IC50 (KALS1): > 300 nM
NC(=O)c1cccc2cn(-c3ccc([C@@H]4CCCNC4)cc3)nc12 [Niraparib, niraparib, reference compound] | > 300 | sensitive | 28.4 | 66.2 | 114 | > 300 | > 300 | > 300 | 55.8 | > 300 | > 300 | > 300 | > 300 | > 300 | > 300 | > 300 | > 300 | > 300 | > 300 | > 300 | IC50 (RL952): > 300 nM; IC50 (NCIH1838): > 300 nM; IC50 (HT1080): > 300 nM; IC50 (JHOS2): > 300 nM; activity as single agents (JHOS2): little to no activity; IC50 (SNU668): > 300 nM; IC50 (RT112): > 300 nM; IC50 (HCC1569): 97.3 nM; IC50 (CCK81): > 300 nM; IC50 (CFPAC1): > 300 nM; IC50 (SNU407): 72.8 nM; IC50 (SNUC5): 92.4 nM; IC50 (BICR22): > 300 nM; IC50 (BICR6): 149 nM; IC50 (T226): > 300 nM; IC50 (YKG1): > 300 nM; IC50 (BICR78): > 300 nM; IC50 (HCC1500): 61.1 nM; IC50 (KALS1): > 300 nM

Reference: patent US20230277533A1, “THERAPEUTIC COMBINATIONS COMPRISING UBIQUITIN-SPECIFIC-PROCESSING PROTEASE 1 (USP1) INHIBITORS AND POLY (ADP-RIBOSE) POLYMERASE (PARP) INHIBITORS” (KSQ Therapeutics, Inc., priority 2020, published 2023)
